Test results from ChEMBL document CHEMBL3856235, “Characterization of 3,3-dimethyl substituted N-aryl piperidines as potent microsomal prostaglandin E synthase-1 inhibitors” (Bioorg Med Chem Lett, 2016).

Experiments:
Prostaglandin E synthase [1] = target: T1, Prostaglandin E synthase (Homo sapiens, UniProt O14684); test: Inhibition of human mPGES-1 expressed in 293E cells assessed as reduction in conversion of PGH2 to PGE2 after 1.5 min by LC/MS analysis; assay type: cell-based
T1 sequence (O14684 whole entry): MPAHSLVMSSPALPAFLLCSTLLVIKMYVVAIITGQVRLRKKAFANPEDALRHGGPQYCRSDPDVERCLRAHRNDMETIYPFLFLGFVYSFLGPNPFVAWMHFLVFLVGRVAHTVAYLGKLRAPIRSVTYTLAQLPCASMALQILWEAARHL

Prostaglandin E synthase [2] = target: T1, Prostaglandin E synthase; test: Inhibition of mPGES-1 in human A549 cells assessed as reduction in recombinant human interleukin-1 beta-induced PGE2 production preincubated for 30 mins measured after 18 hrs by ELISA; assay type: cell-based
[3] = Drug metabolism in rat liver microsomes at 4 uM; assay type: ADME; conditions: read-out: Drug metabolism
[4] = Drug metabolism in dog liver microsomes at 4 uM; assay type: ADME, Canis lupus familiaris; conditions: read-out: Drug metabolism
[5] = Drug metabolism in human liver microsomes at 4 uM; assay type: ADME; conditions: read-out: Drug metabolism
CYP2C9 = CYP2C9 (Homo sapiens, UniProt P11712); test: Inhibition of CYP2C9 in human hepatic microsomes assessed as reduction in probe substrate metabolism at 10 uM; assay type: ADME; conditions: liver microsomes
Sequence of CYP2C9 (P11712 whole entry): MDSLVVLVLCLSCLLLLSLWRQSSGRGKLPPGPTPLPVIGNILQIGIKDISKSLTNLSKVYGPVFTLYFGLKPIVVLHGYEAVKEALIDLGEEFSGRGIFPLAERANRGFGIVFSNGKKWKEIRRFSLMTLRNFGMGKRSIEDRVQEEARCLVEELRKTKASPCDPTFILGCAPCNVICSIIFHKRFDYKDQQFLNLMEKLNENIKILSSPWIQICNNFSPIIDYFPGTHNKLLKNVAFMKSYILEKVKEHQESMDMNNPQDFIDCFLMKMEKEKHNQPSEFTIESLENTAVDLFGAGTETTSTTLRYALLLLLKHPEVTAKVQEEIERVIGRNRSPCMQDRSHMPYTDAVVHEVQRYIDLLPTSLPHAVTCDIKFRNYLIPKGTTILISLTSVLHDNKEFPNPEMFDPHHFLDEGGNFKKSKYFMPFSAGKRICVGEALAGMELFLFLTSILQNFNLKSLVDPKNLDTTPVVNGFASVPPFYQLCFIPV

CYP2D6 = CYP2D6 (Homo sapiens, UniProt P10635); test: Inhibition of CYP2D6 in human hepatic microsomes assessed as reduction in probe substrate metabolism at 10 uM; assay type: ADME; conditions: liver microsomes
Sequence of CYP2D6 (P10635 whole entry): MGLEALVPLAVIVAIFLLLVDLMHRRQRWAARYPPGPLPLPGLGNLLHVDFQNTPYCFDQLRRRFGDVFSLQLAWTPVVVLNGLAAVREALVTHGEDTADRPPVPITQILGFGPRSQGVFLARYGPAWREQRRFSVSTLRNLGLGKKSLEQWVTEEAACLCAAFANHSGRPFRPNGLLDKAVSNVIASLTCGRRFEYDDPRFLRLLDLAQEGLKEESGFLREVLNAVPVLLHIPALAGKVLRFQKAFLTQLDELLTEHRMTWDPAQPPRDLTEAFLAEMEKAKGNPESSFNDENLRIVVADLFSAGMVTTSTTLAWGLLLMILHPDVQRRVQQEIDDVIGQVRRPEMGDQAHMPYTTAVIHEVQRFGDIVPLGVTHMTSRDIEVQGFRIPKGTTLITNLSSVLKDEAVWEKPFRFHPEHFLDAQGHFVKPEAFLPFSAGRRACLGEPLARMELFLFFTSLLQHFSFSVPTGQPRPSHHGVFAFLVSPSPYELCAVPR

CYP3A4 [6] = target: T2, CYP3A4 (Homo sapiens, UniProt P08684); test: Inhibition of CYP3A4 in human hepatic microsomes assessed as reduction in probe substrate metabolism at 10 uM; assay type: ADME; conditions: liver microsomes
T2 sequence (P08684 whole entry): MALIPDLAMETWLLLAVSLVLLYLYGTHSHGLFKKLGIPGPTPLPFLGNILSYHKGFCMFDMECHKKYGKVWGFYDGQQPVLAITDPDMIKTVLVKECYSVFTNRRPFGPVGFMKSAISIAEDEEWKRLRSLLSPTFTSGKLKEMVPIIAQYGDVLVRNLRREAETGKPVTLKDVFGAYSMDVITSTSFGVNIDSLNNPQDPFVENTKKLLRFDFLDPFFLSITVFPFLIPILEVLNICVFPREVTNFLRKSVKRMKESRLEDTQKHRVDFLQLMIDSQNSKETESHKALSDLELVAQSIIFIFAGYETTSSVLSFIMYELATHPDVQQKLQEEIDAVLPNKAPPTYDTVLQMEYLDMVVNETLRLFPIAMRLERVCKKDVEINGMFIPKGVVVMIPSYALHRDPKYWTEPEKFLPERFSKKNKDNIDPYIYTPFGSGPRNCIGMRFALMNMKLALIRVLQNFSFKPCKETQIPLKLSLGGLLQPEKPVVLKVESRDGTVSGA

[7] = Clearance in rat at 1 mg/kg, iv; assay type: ADME, organism-based; conditions: in vivo
[8] = Half life in rat at 1 mg/kg, iv; assay type: ADME, organism-based; conditions: in vivo
[9] = Volume of distribution at steady state in rat at 1 mg/kg, iv; assay type: ADME, organism-based; conditions: in vivo, read-out: Vdss
[10] = Cmax in rat at 5 mg/kg, po; assay type: ADME, organism-based; set-up: dose 5 mg/kg, route oral; conditions: in vivo
[11] = Oral bioavailability in rat at 5 mg/kg; assay type: ADME, organism-based; conditions: in vivo
CYP3A4 [12] = target: T2, CYP3A4; test: Time dependent inhibition of CYP3A4 in human hepatic microsomes assessed as reduction in probe substrate metabolism at 10 uM; assay type: ADME; conditions: liver microsomes, read-out: TDI
Prostaglandin E synthase [13] = target: T1, Prostaglandin E synthase
Description: Inhibition of mPGES-1 in human whole blood assessed as reduction in LPS-induced PGE2 production preincubated for 30 mins followed by LPS stimulation for 20 to 24 hrs by LC/MS/MS analysis

Prostaglandin E synthase [14] = target: T1, Prostaglandin E synthase; test: Inhibition of mPGES-1 (unknown origin)
[15] = Time at which plasma concentration remains above human whole blood IC50 level in human at 200 mg, po; assay type: ADME
[16] = Clearance in Beagle dog at 1 mg/kg, iv; assay type: ADME, organism-based, Canis lupus familiaris; conditions: in vivo
[17] = Volume of distribution at steady state in Beagle dog at 1 mg/kg, iv; assay type: ADME, organism-based, Canis lupus familiaris; conditions: in vivo, read-out: Vdss
[18] = Oral bioavailability in Beagle dog at 15 mg/kg; assay type: ADME, organism-based, Canis lupus familiaris; conditions: in vivo
[19] = Time at which plasma concentration remains above dog whole blood IC50 level in Beagle dog at 3 mg/kg, po; assay type: ADME, organism-based, Canis lupus familiaris; conditions: in vivo
[20] = Inhibition of rat mPGES-1
Prostaglandin E synthase [21] = target: T3, Prostaglandin E synthase (Canis lupus familiaris, UniProt A0SYQ0); test: Inhibition of dog mPGES-1
T3 sequence (A0SYQ0 whole entry): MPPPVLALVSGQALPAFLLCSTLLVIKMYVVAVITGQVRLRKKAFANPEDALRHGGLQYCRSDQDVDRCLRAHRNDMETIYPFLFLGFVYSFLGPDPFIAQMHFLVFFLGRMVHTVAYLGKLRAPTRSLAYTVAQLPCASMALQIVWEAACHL

Prostaglandin E synthase [22] = target: T3, Prostaglandin E synthase; test: Inhibition of mPGES-1 in dog whole blood; assay type: tissue-based

Work on `Cc1cccc2ccc(N3CC[C@H](C(=O)N[C@H]4CC[C@@H](CO)CC4)C(C)(C)C3)nc12` yielded an IC50 (Prostaglandin E synthase [1]) of 1 nM, an IC50 (Prostaglandin E synthase [2]) of 2 nM and a metabolised at 4 µM [3] of 64%. The metabolised at 4 µM [4] was 60%, the metabolised at 4 µM [5] was 46% and the inhibition at 10 µM (CYP2C9) was 54%. For the same compound, the inhibition at 10 µM (CYP2D6) was 4%, the inhibition at 10 µM (CYP3A4 [6]) was 35% and the clearance [7] was 21 mL/min/kg. It also gave a half-life [8] of 2.6 h, a Vd [9] of 1.4 L/kg and a Cmax [10] of 1450 nM. It also gave a bioavailability [11] of 54%, an inhibition at 10 µM (CYP3A4 [12]) of 75% and an IC50 (Prostaglandin E synthase [13]) of 2 nM.
Work on `Cc1cc2nc(N3CCC(C(=O)NC4CCCC4)CC3)n(-c3ccc(F)c(C)c3)c2cc1C` yielded an IC50 (Prostaglandin E synthase [14]) of 25 nM.
With `Cc1cccc2ccc(N3CC[C@H](C(=O)N[C@H]4CCOC4)C(C)(C)C3)nc12` the IC50 (Prostaglandin E synthase [1]) was 6 nM, the IC50 (Prostaglandin E synthase [2]) was 23 nM and the IC50 (Prostaglandin E synthase [13]) was 51 nM.
Compound `CC1(C)CN(c2ccc3cccc(Cl)c3n2)CC[C@H]1C(=O)N[C@H]1CC[C@@H](CO)CC1` has an IC50 (Prostaglandin E synthase [1]) of 3720 nM and an IC50 (Prostaglandin E synthase [2]) greater than 10000 nM.
With `Cc1ccc(-c2cc(C(F)(F)F)nn2-c2ccc(S(N)(=O)=O)cc2)cc1` [CELECOXIB] the Time [15] was 8 to 12 h.
Work on `CC1(C)CN(c2ccc(C(F)(F)F)cc2)CC[C@H]1C(=O)N[C@H]1CCC[C@H](CO)C1` yielded an IC50 (Prostaglandin E synthase [1]) of 504 nM and an IC50 (Prostaglandin E synthase [2]) of 4500 nM.
Work on `Cc1cccc2ccc(N3CC[C@H](C(=O)N[C@H](C)C(C)C)C(C)(C)C3)nc12` yielded an IC50 (Prostaglandin E synthase [1]) of 12 nM, an IC50 (Prostaglandin E synthase [2]) of 89 nM and an IC50 (Prostaglandin E synthase [13]) of 77 nM.
`CC1(C)CN(c2ccc(C(F)(F)F)cc2)CC[C@@H]1C(=O)N[C@H]1CCC[C@H](CO)C1` gave an IC50 (Prostaglandin E synthase [1]) of 3 nM, an IC50 (Prostaglandin E synthase [2]) of 11 nM and an IC50 (Prostaglandin E synthase [13]) of 5 nM.
In the case of `CC1(C)CN(c2ccc3cccc(Cl)c3n2)CC[C@@H]1C(=O)N[C@H]1CC[C@@H](CO)CC1`, the IC50 (Prostaglandin E synthase [1]) is reported as 4 nM, the IC50 (Prostaglandin E synthase [2]) is reported as 30 nM and the IC50 (Prostaglandin E synthase [13]) is reported as 23 nM.
Compound `Cc1cccc2ccc(N3CC[C@H](C(=O)N[C@H]4CCO[C@H](CO)C4)C(C)(C)C3)nc12` has an IC50 (Prostaglandin E synthase [1]) of 2 nM, an IC50 (Prostaglandin E synthase [2]) of 5 nM and a metabolised at 4 µM [3] of 16%. For the same compound, the metabolised at 4 µM [4] was 13%, the metabolised at 4 µM [5] was 20% and the inhibition at 10 µM (CYP2C9) was 15%. The inhibition at 10 µM (CYP2D6) was 0%, the inhibition at 10 µM (CYP3A4 [6]) was 10% and the clearance [16] was 3.62 mL/min/kg. For the same compound, the Vd [17] was 1.6 L/kg, the bioavailability [18] was 74% and the Time [19] was 24 h. It also gave an IC50 [20] of 7870 nM, an IC50 (Prostaglandin E synthase [21]) of 11 nM and an IC50 (Prostaglandin E synthase [22]) of 23 to 28 nM. For the same compound, the clearance [7] was 14 mL/min/kg, the half-life [8] was 2.3 h and the Vd [9] was 2.3 L/kg. The Cmax [10] was 2050 nM, the bioavailability [11] was 100% and the inhibition at 10 µM (CYP3A4 [12]) was 39%. For the same compound, the IC50 (Prostaglandin E synthase [13]) was 7 nM.
`Cc1cccc2ccc(N3CC[C@H](C(=O)N[C@H]4CCCOC4)C(C)(C)C3)nc12` gave an IC50 (Prostaglandin E synthase [1]) of 7 nM, an IC50 (Prostaglandin E synthase [2]) of 72 nM and an IC50 (Prostaglandin E synthase [13]) of 36 nM.
For `Cc1cccc2ccc(N3CC[C@H](C(=O)N[C@H]4CCC[C@H](CO)C4)C(C)(C)C3)nc12`, the IC50 (Prostaglandin E synthase [1]) was 1 nM, the IC50 (Prostaglandin E synthase [2]) was 3 nM and the metabolised at 4 µM [3] was 73%. It also gave a metabolised at 4 µM [4] of 57%, a metabolised at 4 µM [5] of 50% and an inhibition at 10 µM (CYP2C9) of 64%. It also gave an inhibition at 10 µM (CYP2D6) of 0%, an inhibition at 10 µM (CYP3A4 [6]) of 43% and a clearance [7] of 34 mL/min/kg. For the same compound, the half-life [8] was 0.6 h, the Vd [9] was 1.3 L/kg and the Cmax [10] was 1430 nM. The bioavailability [11] was 30%, the inhibition at 10 µM (CYP3A4 [12]) was 82% and the IC50 (Prostaglandin E synthase [13]) was 1 nM.
